Marks after values point to notes of the source that are not given here.
How the values were obtained:
[1] = test system: Ehrlich ascites carcinoma (EAC); assay: Ehrlich ascites carcinoma (EAC) mouse model; type: in vivo
Source text: 10 male outbred mice (5 mice per group) at the age of 10 weeks, weighing 19-23 g were used in Ehrlich ascites carcinoma (EAC) model. Before the experiment, all the animals were healthy, with normal behavioral performance. During the experiment, the animals were kept in plastic cages under natural light illumination, on a standard diet with free access to food and water. An ascites strain of mouse breast cancer (EAC) maintained in outbred mice was used in the experiment. To inoculate the strain, the tumor cells derived from the ascitic fluid were placed in saline solution. The suspension cellularity was evaluated in the hemocytometer and adjusted to a concentration of 1×10^6 cells/ml with saline solution. The tumor was transplanted by injecting […] of the tumor cell suspension (0.25×10^6 cells/mouse) into the abdominal cavity of the animals.
The animals were divided into groups as follows: • Group No 1—control group, mice with EAC+solvent (deuterium-depleted water (this water contains deuterium at a level of 10 ppm)); • Group No 2−mice with EAC+^64Zne aspartate.
The solution comprising ^64Zne aspartate was injected intraperitoneally using a microinjection syringe at a dose of 0.075 mg (75 μg)/mouse every other day (5 times during 10 days) starting from the first day after injection in a volume of 0.5 ml/mouse. […] On the 13th day after i.p. inoculation of tumor cells, the whole ascites fluid was recovered from the animals and the total number of live/dead cells in each mouse was determined. Deuterium-depleted water alone was used instead of a solution of ^64Zne aspartate as control in the experiment.
The dynamics of formation of ascites in the control and experimental groups was assessed visually using a 10-point scale (one point was 0.46 cm of the mean diameter of the mouse abdomen filled with ascites).
In addition, on the 13th day after intraperitoneal inoculation of tumor cells, all ascetic fluid was removed from the abdomens in all animals from each group by washing their peritoneal cavities with saline solution and live and dead tumor cells were counted using the traditional vital dye trypan blue (HyClon, USA) and a hemocytometer.
The number of cells was determined using the following formula: X=((a)/80)×10^6, where X is the number of cells in 1 ml and a is the number of cells counted in 80 small squares of the hemocytometer.

MCF-7 cell line = assay: Cytogenetic analysis (micronucleus test) of MCF-7 cells; type: cell-based, human
Protocol: Advanced Micronucleus Test was used to assess the cytogenetic characteristics of cells after their exposure to the action of the test group of components.
Cytogenetic analysis was carried out after 48 hours of exposure of the cells to the action of the components. For cytogenetic analysis, the cells were incubated in hypotonic solution KCl (0.54%) (Reahim, Ukraine) for 40 minutes at +37° C. Then they were fixed with a mixture of methyl alcohol (Reahim, Ukraine) and acetic acid (Himlaborreaktiv, Ukraine) (3:1) with replacing the fixative three times. All fixed cell suspensions were applied on cold wet glasses, dried and stained with Giemsa stain (Sigma, Germany). The cytogenetic preparations were analyzed using a binocular microscope Sari Zeiss, AxioStarPlus (Germany) with magnification of x 1000. The following quantitative characteristics and stages of cell division were analyzed on the preparations: mitoses, cells with premature chromosome condensation (PCC), cells with micronuclei (CMN), apoptotic cells and cells with nuclear protrusions (protrusions) which were calculated for 1000 cells and expressed in per mille (%).

[2] = test system: acute promyelocyte leukemia (HL-60 line) cells; assay: Immunocytochemical analysis (H-Score) of HL-60 cells; type: cell-based, human
Protocol: Materials and methods for leukemia cell lines HL-60 and Namalva and cell culture conditions will now be described. Initial HL-60 and Namalva cells were cultured in complete RPMI 1640 medium (PAA) (PAA, Austria) supplemented with 10% fetal calf serum (PAA) and incubated in 5% CO2 humidified atmosphere at 37° C. The culture medium was replaced in 2 to 3 days and the cells were passaged in 4 to 5 days.
In carrying out the immunocytochemical (ICC) assay, cells on microscope glasses (cytospin preparations) were fixed in the solution (methanol+acetone (1:1)) for 2 hours at t−20° C. and then incubated with a 1% solution of bovine serum albumin (BSA) for 20 minutes.
After the immunocytochemical reaction, the preparations were rinsed with water and counterstained with hematoxylin and eosin for 15 to 30 seconds. The results were analyzed by a quantitative estimation of cells with the marker expression (increased brown color of cells corresponded to a higher degree of expression of the marker) using a light microscope and assessed using the classical H-Score method: S=1×A+2×B+3×C, where S is the H-Score index the values of which are within the scope of 0 (protein is not detectable) to 300 (high-level expression in 100% of the cells), A is a percentage of weakly stained cells, B is the percentage of moderately stained cells, and C the percentage of strongly stained cells.

## NC(CC(=O)[O-])C(=O)[O-].[64Zn+2] (racemic) [^64Zne aspartate, ^64Zn aspartate (racemic)]
[1]; after 5 injections
  suppression of growth of Ehrlich ascites carcinoma: 100%
[1]; day 7 after inoculation, 75 μg/mouse i.p. every other day x5
  Volume of ascites in mice: 0* points
[1]; day 9, 75 μg/mouse i.p. x5
  Volume of ascites in mice: 0** points
[1]; day 11, 75 μg/mouse i.p. x5
  Volume of ascites in mice: 0* points
[1]; day 13, 75 μg/mouse i.p.
  Number of dead cells/mouse: 0
  Number of live cells/mouse (M ± m): 0* cells/mouse
  Volume of ascites (M ± m): 0* ml/mouse
[1]; day 13, 75 μg/mouse i.p. x5
  Volume of ascites in mice: 0** points

## O=S(=O)([O-])[O-].[64Zn+2] [^64Zn]
MCF-7 cell line
  level of cells with micronuclei: more than a two-fold increase

## [39K+].[Cl-] [^39K]
[2]
  amount of N-cadherin-positive cells: in most cases increased
[2]; ^39K 2 and 0.5 mg/ml, ^64Zn 10 mcg/ml
  number of cells expressing ICAM: reduction in the number of cells
[2]; especially in high doses
  level of expression of CD44: tendency to decrease in the level of expression
